Experimental data taken from PMC4468608, “A distinct p53 target gene set predicts for response to the selective p53–HDM2 inhibitor NVP-CGM097” (eLife, 2015).

Test system: cell lines from the Cancer Cell Line Encyclopedia (CCLE)
Assay: High-throughput cell viability assay, CCLE cell line panel (n = 356)
Format: cell-based, human
Experimental: Cell lines were partitioned into sensitive and insensitive groups based on compound potency (IC50). […] All other cell lines were obtained from ATCC (American Type Culture Collection), DSMZ (Deutsche Sammlung von Mikroorganismen und Zellkulturen), and HSRRB (Health Science Research Resources Bank) and cultured in RPMI or Dulbecco's modified Eagle's medium plus 10% FBS (Invitrogen, Carlsbad, CA) at 37°C, 5% CO2.

COc1cc2c(cc1OC(C)C)[C@H](c1ccc(Cl)cc1)N(c1ccc(N(C)C[C@H]3CC[C@H](N4CCNC(=O)C4)CC3)cc1)C(=O)C2 [NVP-CFC218]
Amax (42-MG-BA, TP53 MUT): -30.94% | sensitivity call (42-MG-BA, TP53 MUT): insensitive (Sensitivity call for each compound was applied according to a cut-off of 4 µM for IC50 and -50% for Amax) | share of sensitive cells expressing wild-type p53 (43/47): 91.5% | share of p53 wild-type cell lines scored insensitive (57/100 p53 wild-type cell lines): 57% | number of insensitive cell lines in wider cell line compendium (634 cell lines): 557 | number of sensitive cell lines in wider cell line compendium (634 cell lines): 77 | Amax (697, TP53 WT): -96.96% | sensitivity call (697, TP53 WT): sensitive (Sensitivity call for each compound was applied according to a cut-off of 4 µM for IC50 and -50% for Amax) | Amax (8505C, TP53 MUT): -28.72% | sensitivity call (8505C, TP53 MUT): insensitive (Sensitivity call for each compound was applied according to a cut-off of 4 µM for IC50 and -50% for Amax) | Amax (AN3 CA, TP53 MUT): 5.06% | sensitivity call (AN3 CA, TP53 MUT): insensitive (Sensitivity call for each compound was applied according to a cut-off of 4 µM for IC50 and -50% for Amax) | Amax (B-CPAP, TP53 MUT): 1.71% | sensitivity call (B-CPAP, TP53 MUT): insensitive (Sensitivity call for each compound was applied according to a cut-off of 4 µM for IC50 and -50% for Amax) | Amax (BEN, TP53 MUT): 0.13% | sensitivity call (BEN, TP53 MUT): insensitive (Sensitivity call for each compound was applied according to a cut-off of 4 µM for IC50 and -50% for Amax) | Amax (BFTC-905, TP53 MUT): 0.25% | sensitivity call (BFTC-905, TP53 MUT): insensitive (Sensitivity call for each compound was applied according to a cut-off of 4 µM for IC50 and -50% for Amax) | Amax (BFTC-909, TP53 MUT): 1.37% | sensitivity call (BFTC-909, TP53 MUT): insensitive (Sensitivity call for each compound was applied according to a cut-off of 4 µM for IC50 and -50% for Amax) | Amax (BT-20, TP53 MUT): 1.40% | sensitivity call (BT-20, TP53 MUT): insensitive (Sensitivity call for each compound was applied according to a cut-off of 4 µM for IC50 and -50% for Amax) | Amax (BT-474, TP53 MUT): -3.44% | sensitivity call (BT-474, TP53 MUT): insensitive (Sensitivity call for each compound was applied according to a cut-off of 4 µM for IC50 and -50% for Amax) | Amax (CAL-12T, TP53 MUT): -18.61% | sensitivity call (CAL-12T, TP53 MUT): insensitive (Sensitivity call for each compound was applied according to a cut-off of 4 µM for IC50 and -50% for Amax) | Amax (CAL-78, TP53 MUT): -1.01% | sensitivity call (CAL-78, TP53 MUT): insensitive (Sensitivity call for each compound was applied according to a cut-off of 4 µM for IC50 and -50% for Amax) | Amax (CHL-1, TP53 MUT): -46.61% | sensitivity call (CHL-1, TP53 MUT): insensitive (Sensitivity call for each compound was applied according to a cut-off of 4 µM for IC50 and -50% for Amax) | Amax (CHP-212, TP53 WT): -71.98% | sensitivity call (CHP-212, TP53 WT): sensitive (Sensitivity call for each compound was applied according to a cut-off of 4 µM for IC50 and -50% for Amax) | Amax (COLO 205, TP53 MUT): -1.62% | sensitivity call (COLO 205, TP53 MUT): insensitive (Sensitivity call for each compound was applied according to a cut-off of 4 µM for IC50 and -50% for Amax) | Amax (COLO 792, TP53 WT): 2.74% | sensitivity call (COLO 792, TP53 WT): insensitive (Sensitivity call for each compound was applied according to a cut-off of 4 µM for IC50 and -50% for Amax) | Amax (COR-L23, TP53 WT): -1.38% | sensitivity call (COR-L23, TP53 WT): insensitive (Sensitivity call for each compound was applied according to a cut-off of 4 µM for IC50 and -50% for Amax) | Amax (Capan-1, TP53 MUT): 30.74% | sensitivity call (Capan-1, TP53 MUT): insensitive (Sensitivity call for each compound was applied according to a cut-off of 4 µM for IC50 and -50% for Amax) | Amax (ChaGo-K-1, TP53 MUT): -18.45% | sensitivity call (ChaGo-K-1, TP53 MUT): insensitive (Sensitivity call for each compound was applied according to a cut-off of 4 µM for IC50 and -50% for Amax) | Amax (DMS 53, TP53 MUT): 9.69% | sensitivity call (DMS 53, TP53 MUT): insensitive (Sensitivity call for each compound was applied according to a cut-off of 4 µM for IC50 and -50% for Amax) | Amax (DU 145, TP53 MUT): -4.91% | sensitivity call (DU 145, TP53 MUT): insensitive (Sensitivity call for each compound was applied according to a cut-off of 4 µM for IC50 and -50% for Amax) | Amax (Daoy, TP53 MUT): 2.94% | sensitivity call (Daoy, TP53 MUT): insensitive (Sensitivity call for each compound was applied according to a cut-off of 4 µM for IC50 and -50% for Amax) | Amax (EB2, TP53 MUT): -5.89% | sensitivity call (EB2, TP53 MUT): insensitive (Sensitivity call for each compound was applied according to a cut-off of 4 µM for IC50 and -50% for Amax) | Amax (EFE-184, TP53 MUT): -2.73% | sensitivity call (EFE-184, TP53 MUT): insensitive (Sensitivity call for each compound was applied according to a cut-off of 4 µM for IC50 and -50% for Amax) | Amax (EFO-21, TP53 MUT): 5.85% | sensitivity call (EFO-21, TP53 MUT): insensitive (Sensitivity call for each compound was applied according to a cut-off of 4 µM for IC50 and -50% for Amax) | Amax (FU-OV-1, TP53 MUT): -2.32% | sensitivity call (FU-OV-1, TP53 MUT): insensitive (Sensitivity call for each compound was applied according to a cut-off of 4 µM for IC50 and -50% for Amax) | Amax (FaDu, TP53 MUT): 8.93% | sensitivity call (FaDu, TP53 MUT): insensitive (Sensitivity call for each compound was applied according to a cut-off of 4 µM for IC50 and -50% for Amax) | Amax (G-401, TP53 WT): -87.03% | sensitivity call (G-401, TP53 WT): sensitive (Sensitivity call for each compound was applied according to a cut-off of 4 µM for IC50 and -50% for Amax) | Amax (GI-1, TP53 MUT): -2.97% | sensitivity call (GI-1, TP53 MUT): insensitive (Sensitivity call for each compound was applied according to a cut-off of 4 µM for IC50 and -50% for Amax) | Amax (GMS-10, TP53 MUT): -4.00% | sensitivity call (GMS-10, TP53 MUT): insensitive (Sensitivity call for each compound was applied according to a cut-off of 4 µM for IC50 and -50% for Amax) | Amax (HCC1806, TP53 MUT): 1.11% | sensitivity call (HCC1806, TP53 MUT): insensitive (Sensitivity call for each compound was applied according to a cut-off of 4 µM for IC50 and -50% for Amax) | Amax (HCC1954, TP53 MUT): -0.81% | sensitivity call (HCC1954, TP53 MUT): insensitive (Sensitivity call for each compound was applied according to a cut-off of 4 µM for IC50 and -50% for Amax) | Amax (HCC-15, TP53 MUT): -21.49% | sensitivity call (HCC-15, TP53 MUT): insensitive (Sensitivity call for each compound was applied according to a cut-off of 4 µM for IC50 and -50% for Amax) | Amax (HCT-15, TP53 MUT): -20.00% | sensitivity call (HCT-15, TP53 MUT): insensitive (Sensitivity call for each compound was applied according to a cut-off of 4 µM for IC50 and -50% for Amax) | Amax (HLF, TP53 MUT): -3.09% | sensitivity call (HLF, TP53 MUT): insensitive (Sensitivity call for each compound was applied according to a cut-off of 4 µM for IC50 and -50% for Amax) | Amax (HMC-1-8, TP53 MUT): -1.67% | sensitivity call (HMC-1-8, TP53 MUT): insensitive (Sensitivity call for each compound was applied according to a cut-off of 4 µM for IC50 and -50% for Amax) | Amax (Hep G2, TP53 WT): -62.73% | sensitivity call (Hep G2, TP53 WT): sensitive (Sensitivity call for each compound was applied according to a cut-off of 4 µM for IC50 and -50% for Amax) | IC50 (Homo sapiens, 8-MG-BA, TP53 MUT): > 8 µM | IC50 (Homo sapiens, 42-MG-BA, TP53 MUT): > 8 µM | IC50 (Homo sapiens, 697, TP53 WT): 1.59 µM | IC50 (Homo sapiens, 769-P, TP53 WT): 3.01 µM | IC50 (Homo sapiens, 786-0, 786-O, TP53 MUT): > 8 µM | IC50 (Homo sapiens, 5637, TP53 MUT): > 8 µM | IC50 (Homo sapiens, 8505C, TP53 MUT): > 8 µM
